Laboratory results published in patent publication US9457008B2, “Joint product comprising synephrine and topiramate” (Institute of Pharmacology and Toxicology Academy of …, priority 2012, dated 2016).

Experiment: Effects of different dissolution media on release rate of sustained-release pellet of topiramate
Assay type: physicochemical
Conditions: 0.1 mol/L HCl (pH1.2), 37° C.
Experimental: In order to verify whether acidic, basic solvent media would influence the release rate of the sustained-release pellets of the present invention, 0.1 mol/L HCl (pH1.2) was prepared as artificial gastric fluid, […] phosphate buffer (pH6.8) was prepared as artificial intestinal fluid, and these media and water (500 ml) were used as release media, rotation speed was 100 rpm, 37° C. Samples (5 ml, supplemented with equivalent volume of media at the meantime) were taken at 1, 2, 4, 8, 12, 16, 20, 24 h, filtrated, and the subsequent filtrates were used as test solutions. High performance liquid chromatography (Appendix V D, Part II of Chinese Pharmacopoeia, 2010 Edition) was used, octylsilane-bonded silica gel was used as packing agent, 50% methanol was mobile phase, differential refractive detector was used, flow rate was 1.5 ml per minute. 200 μl of test solution was taken, injected in liquid chromatograph, the peak area of topiramate as main drug was recorded; topiramate was separately taken as control sample and measured by the same method, and accumulative release percentages of drug at different time points were calculated by external standard method. The release profile of sample of Batch 1 in Example 16 (2) in the above media were drawn, and the results were shown in FIG. 4.

- stability in pH1.2 artificial gastric fluid: unstable
Structure (SMILES): CC1(C)O[C@@H]2[C@@H](CO[C@@]3(COS(N)(=O)=O)OC(C)(C)O[C@@H]23)O1 [topiramate, 2,3,4,5-bis-O-(1-methylethylene)-β-D-fructopyranose sulfamate]
